This passage reports GI50 and TGI results from PubChem BioAssay (NCI).

What all share (test): NCI-60 cell line screen, 48 h
Assay [1] concerns TK-10 renal.
Assay [2] concerns ACHN renal.
In assay [3] the test system is A498 renal.
Assay [4] deals with SF-268 CNS.
The subject of assay [5] is OVCAR-4 ovarian.
In assay [6] the test system is HCT-15 colon.
Assay [7] relates to KM12 colon.
Assay [8] deals with HOP-62 NSCLC.
Assay [9] concerns DU-145 prostate.

Values joined by “and” are separate entries in the source; they are usually repeats but may differ in a detail not shown here. Equal entries are not always repeated.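 Grown in 96-well plates, cells were treated for 48 hours with each compound at five concentrations. Insufficient inhibition: endpoint recorded as highest concentration tested. GI50 marks 50% less growth. Definition used: TGI = concentration required for complete inhibition of growth.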

On to `Cc1c2oc3c(C)cc(F)c(C(=O)NC4C(=O)NC(C(C)C)C(=O)N5CCCC5C(=O)N(C)CC(=O)N(C)C(C(C)C)C(=O)OC4C)c3nc-2c(C(=O)NC2C(=O)NC(C(C)C)C(=O)N3CCCC3C(=O)N(C)CC(=O)N(C)C(C(C)C)C(=O)OC2C)c(N)c1=O` (centres undefined), for which the GI50 was 1.07 µM in assay [1], 0.85 µM in [3], 0.559 µM in assay [5] and 0.42 µM in assay [6]. Moreover, the TGI in [2] is 32.5 µM; in assay [3], 0.902 µM; in assay [4] it was 4.21 µM and 15.3 µM; in [5], above 100 µM; in assay [6], above 100 µM.
On to `CC1=NN(C(=O)Cc2ccccc2)C(=O)/C1=C\c1ccccc1O`, for which the TGI in assay [7], in assay [8], in assay [1], in [2], in assay [3] and in assay [4] was above 100 µM each time. Further, the TGI in [5] and in [6] was above 100 µM in each case.
Take `O=C1CCC2(c3ccc(Cl)cc3)Nc3ncncc3N12` (centres undefined): the TGI in assay [7], in assay [1], in assay [2], in assay [9], in assay [4] and in assay [5] was above 10 µM each time. In assay [6], this compound returned a TGI above 10 µM.
With `O=C(Nc1ccc(Sc2ccc(N=Nc3c(O)c(S(=O)(=O)O)cc4cc(S(=O)(=O)O)ccc34)cc2)cc1)c1ccc(N=Nc2c(O)c(S(=O)(=O)O)cc3cc(S(=O)(=O)O)ccc23)cc1`, the TGI in [7], in assay [8], in assay [1], in [2], in assay [3] and in assay [4] was above 100 µM in each case. Also, the figures for the TGI in [5] and in assay [6] were above 100 µM and 28 µM, respectively.
As to `CC1CCOc2ccc(cc2)C=Nc2ccc(cc2)-c2ccc(cc2)N=Cc2ccc(cc2)OCC1` (centres undefined), the TGI in assay [7], in assay [1], in assay [2], in [9], in assay [4] and in assay [5] was above 100 µM in each case. This compound displayed a TGI in [6] above 100 µM.
`CC1=CC(=O)/C(=C/n2c(=S)[nH]c3cc(C)ccc32)C(=O)O1`: the TGI in assay [7], in assay [8], in assay [1], in assay [2], in assay [9] and in [4] was above 100 µM each time. Further, the TGI in assay [5] and in assay [6] was above 100 µM in each case.
`O=C(c1ccccc1O)c1cc(-c2ncc3c(=O)c4ccccc4oc3n2)c(-c2ccccc2O)[nH]c1=O`: the TGI in assay [7] is above 80 µM; in assay [8], 52.6 µM; in assay [3], 57.1 µM; in assay [4] it was above 75.9 µM; in [5] it was 83.5 µM; in assay [6], 71 µM.
`Cc1ccc(C#CS(=O)(=O)C(F)(F)F)cc1`: the TGI in assay [7], in [8], in [3], in assay [4], in [5] and in [6] was above 100 µM in each case.
As for `COc1ccc([C@H]2c3cc4c(cc3OC(O)(CO)[C@H]2C(=O)O)OCO4)c(OC)c1` (some centres undefined) (tested in a mixture with another compound), the TGI in assay [7], in [8], in [1], in assay [2], in [3] and in [4] was above 100 µM each time. The TGI in assay [5] and in assay [6] was above 100 µM throughout.
As for `O=NN1C(c2ccccc2)CCCC1c1ccccc1` (centres undefined), the TGI was above 100 µM in assay [7]; above 100 µM in assay [8]; above 85.5 µM in assay [3]; above 100 µM in assay [4]; above 100 µM in [5]; above 100 µM in assay [6].
Take `Cn1cnc(SC2=C3C(=O)C=C4S[C@H]5C[C@]42c2c(c(O)c4c6c2=[N+]3CCC=6C=N4)N5)c1CC(N)C(=O)O` (some centres undefined): the TGI is 37.8 µM in [7]; above 100 µM in [1]; 29.5 µM in [2]; 36.5 µM in assay [3]; 25.1 µM in [4]; 31.1 µM in [5]. Besides, in assay [6], the TGI is above 100 µM.
Take `COc1ccc(C2=C(Cl)c3cc(OC)c(OC)cc3C2)cc1OC`: the TGI in [8], in assay [2], in assay [3], in assay [4], in assay [5] and in assay [6] was above 100 µM each time.
Regarding `COc1ccc(CCCN2c3ccccc3Sc3ccccc32)cc1`, the TGI in [7], in assay [8], in assay [1], in [2], in assay [3] and in assay [4] was above 100 µM throughout. Also, the TGI in [5] and in [6] was above 100 µM each time.
